The melting point is the temperature of the solid-liquid transition.

In turn, `CCOC(=O)c1c2ccc(Cl)cc2c(-c2ccccc2)n1CCN` yielded a melting point of 84 to 86 °C. The same measure for `COC(NC(=O)c1ccccc1O)C(Cl)(Cl)Cl` (configuration not stated): 117 to 118 °C; for `CC(=O)OC1CSC(Oc2cccnc2-c2ccoc2)C(OC(C)=O)C1OC(C)=O` (configuration not stated): 185 °C; for `CC(C)(C)OC(=O)Nc1ccc(-c2ccc(OCc3ccccc3)nc2)cc1[N+](=O)[O-]`: 119 to 122 °C.

Take `CCCCOc1ccc2nc(C(=O)NCC(=O)O)c(O)cc2c1`: the melting point is 180 to 182 °C.

`c1cc(N2CCOCC2)c2c(c1)-n1cnc(-c3nc(C4CC4)no3)c1N1CCN=C21` yielded a melting point of 217 to 220 °C. `CN(C)c1ccc(CN=C(Cc2ccccc2)N2CC3C(=O)CCC(c4ccccc4)(c4ccccc4)C3C2)cc1` (configuration not stated) showed a melting point of 186 °C.

Turning to `O=c1[nH]c(=O)n(CCCN2CCC(OC(c3ccccc3)c3ccccc3)CC2)c2ccccc12`, the melting point lay in the range of 149 to 151 °C. As to `O=C(O)COc1c(-c2ccccc2)c(=O)[nH]c2cc(Cl)ccc12`, the melting point was 269 to 272 °C. The same measure for `CCOC(=O)c1ncc2c(c1COC)c1c(Cc3ccccc3Cl)cccc1n2S(=O)(=O)c1ccc(C)cc1`: 140 to 142 °C; for `Brc1ccc2nc(-c3cccnc3)nn2c1`: 176 °C. The figure for `O=C1NC(=Cc2cccc(Cl)c2)C(=O)C1=NO` is 185 °C. Compound `CC1(C)CC(C)(C)c2cc(Cl)c(O)cc21` showed a melting point of 52 °C. The same measure for `CCC(CC(O)C(CC1CCCCC1)NC(=O)C(Cc1c[nH]cn1)NC(=O)C(Cc1ccccc1)C(=O)NO)C(C)C` (configuration not stated): 123 °C. The figure for `CCOc1c(OC)cc(C)c(C(=O)c2c(OC)ccc(Cl)c2C)c1OC` is 131 to 132 °C. The same measure for `Clc1cc(N2CCNCC2)ccn1`: 119 to 120 °C; for `O=C1Nc2cc(-n3nnn(CCCF)c3=O)c(F)cc2CC1Cl` (configuration not stated): 114 to 118 °C; for `CN(C)CCCOc1cc(F)c(-c2c(Cl)nc(-n3ccnc3)nc2NCC(F)(F)F)c(F)c1`: 47 to 49 °C. `O=C(O)c1[nH]c2cc(Cl)cc(Cl)c2c1C=C1CC(=O)N(c2ccccc2)C1=O` had a melting point greater than 250 °C. Take `CC(C)c1ccc(-n2cc(C#N)cc2N)c(Br)c1`: the melting point turned out to be 106 °C. On to `CN(C)CCC1CCC2(CC1)Nc1cc(Cl)c(S(N)(=O)=O)cc1S(=O)(=O)N2` (configuration not stated), for which the melting point fell in the range of 238 to 239 °C. `CCCCCCCCCCCCCCCCCCN(C(=O)OC(C)(C)C)c1ccc(CCC(=O)O)cc1` had a melting point of 46 to 48 °C.

Turning to `Cc1sc(C(N)=O)c2c1-c1c(cnn1Cc1ccccc1)CC2`, the melting point lay within 205 to 206 °C.

Turning to `OC(c1ccccc1)c1cc2ccncc2[nH]1` (configuration not stated), the melting point was in the range of 178 to 180 °C.

The compound `Nc1nc(O)c2cc(CN(CCF)c3ccc(C(=O)N[C@@H](CCC(=O)O)C(=O)O)cc3)ccc2n1` displayed a melting point greater than 350 °C. Take `CNC(=O)[C@H](O)C(C)(C)C`: the melting point lay in the range of 60 to 62 °C.

`CNC(=O)Nc1sc2nc(C)ccc2c1C(=O)N1CCC(N2CCCC3(CCN(C(C)C)C3=O)C2)CC1` (configuration not stated) yielded a melting point of 195 to 198 °C.

With `COc1ccc(C2CCCCC2)cc1-c1csc(NC(=O)N2CCN(C3CCN(S(=O)(=O)C4CC4)CC3)CC2)n1`, the melting point came to 138 °C. The figure for `CCc1cc(O)cc(O)c1` is 97 to 98 °C; for `CCN1C(=O)Cc2cc(Cl)cnc21` it is 78 to 82 °C; for `CCc1cccc(CC(=O)O)c1OCCCc1cn(-c2ccc(C(F)(F)F)cn2)nc1C(C)C` it is 155 to 156 °C.

`CCCCCS(=O)c1cccc(-c2nc(=O)c3ccccc3s2)n1` (configuration not stated) returned a melting point of 146 to 147 °C. The figure for `COCC1CN(c2ccc(C3CCC4(CC3)OCCO4)cn2)C(=O)O1` (racemic) is 117 to 121 °C. `Cc1ccc(S(=O)(=O)N2CCCCC2)cc1` yielded a melting point of 148 to 150 °C. The figure for `CC(C)(COc1ccc(O)c(C(N)=O)c1)NCC(O)c1ccccc1` (configuration not stated) is 121 to 123 °C. The same measure for `Oc1cc2cc(-c3ccccc3)sc2c(Cl)c1Cl`: 122 to 124 °C; for `Cc1nc(O)c(-c2ccc(S(C)(=O)=O)cc2)s1`: 216 to 226 °C. The same measure for `COC(=O)c1ccc(Cn2ncc3ccc([N+](=O)[O-])cc32)cc1`: 171 to 172 °C; for `CCCCCCCCCCCCCCOc1cc(OCCCOc2ccc(OCc3ccccc3)cc2)cc(C(=O)OC)c1`: 69 to 70 °C. As to `CC(=O)NC[C@H]1CN(c2ccc(N3CCC(C#N)(CC#N)CC3)c(F)c2)C(=O)O1`, the melting point is 222 to 224 °C. The same measure for `Sc1nc2cc(C(c3ccccc3)n3ccnc3)ccc2[nH]1` (configuration not stated): 260 °C; for `COc1cccc(Cn2c(-c3cc(OC)c(OC)c(OC)c3)nc3ccccc32)c1`: 127 °C; for `CN(CCCCCCCNC(=O)NCCSCc1csc(NC(=N)N)n1)CCN(Cc1ccc(F)cc1)c1ccccn1`: 125 °C. The same measure for `Nc1c(-c2ccc(Oc3ccccc3)cc2)nc2ccccc2c1C(=O)O`: 218 to 220 °C; for `O=C(Nc1cccc(F)c1)c1cccc(Oc2cccc(C(F)(F)F)c2)n1`: 74 to 75 °C; for `COC(=O)COc1ccc(SCc2ccc(-c3ccc(C(F)(F)F)cc3)cc2)c2c1CCCO2`: 122 to 124 °C.

As to `Nc1nc2ccccc2c2c1ncn2CCCCNC(=O)c1ccc(Cn2c(N3CCCC3)nc3ccccc32)cc1`, the melting point fell in the range of 150 to 153 °C.

In turn, `CCn1c(=O)c(-c2cc(OC)cc(OC)c2)cc2cnc(S(C)=O)nc21` (configuration not stated) came in with a melting point of 114 to 116 °C.

For the compound `COc1ccccc1CNc1ccc2cc(Nc3ncc(C(F)(F)F)o3)ccc2n1`, the melting point turned out to be 166 °C. The same measure for `COc1c(C)cnc(CSc2nc3cc(OC(F)(F)F)ccc3[nH]2)c1C`: 152 to 154 °C; for `COC(=O)c1sc2ccc(C#N)cc2c1N`: 248 °C; for `COc1ccccc1CC(O)(c1ccccc1)C1CCN(CCCC(=O)c2ccc(C(C)(C)C)cc2)CC1` (configuration not stated): 118 to 120 °C. The figure for `C=CCOC[C@H](NC(=O)[C@@H](NC(=O)[C@H](Cc1ccc(OCC=C)cc1)NC(=O)OC(C)(C)C)C(C)C)C(=O)OC` is 109 to 111 °C; for `O=C(CCl)Nc1sccc1C(O)c1ccccc1Cl` (configuration not stated) it is 118 to 120 °C; for `CC1(C)Oc2cccnc2C2OC21` (configuration not stated) it is 65 to 67 °C.

Turning to `OCc1cc2ccc3c4ccccc4ccc3c2o1`, the melting point is 125 to 126 °C. The figure for `Cc1ccc2[nH]c(=O)cc(CCN3CCN(c4cccc5ccccc45)CC3)c2c1` is 241 to 242 °C.

`O=C(O)c1nn(-c2ccc(Cl)cc2Cl)c(-c2ccc(Cl)cc2)c1Br` returned a melting point of 222 to 224 °C.

Turning to `O=Cc1cc2sccc2c2ccccc12`, the melting point lay within 101 to 102 °C.

For the compound `CCCCNC(=O)NS(=O)(=O)c1cccc2c1CCCC2`, the melting point fell in the range of 173 to 175 °C. The same measure for `COC1(OC)SC(c2nccs2)=C(C)NC1=O`: 127 to 128 °C; for `CCOC(=O)C1(C(=O)O)CN(C2CC2)c2nc3cc(N4CC(N)C4C)c(F)cc3cc2C1=O` (configuration not stated): 170 °C; for `CCCCN1C(=O)C2=C(c3ccc(Cl)cc3)N(CCCC)C(=O)C2=C1c1ccc(Cl)cc1`: 176 to 177 °C. `CC(O)(CCBr)c1ccc(-c2cccc(F)c2)cc1` (configuration not stated): the melting point was 72 to 74 °C.

With `O=C(O)c1ccc(Oc2ccc(Oc3ccc(C(=O)O)c(C(=O)O)c3)c(P(=O)(c3ccccc3)c3ccccc3)c2)cc1C(=O)O`, the melting point lay within 212 to 218 °C. The same measure for `Fc1cccc(F)c1C1=NC(c2ccc(C#Cc3ccc(Cl)cc3)cc2)CO1` (configuration not stated): 155 to 156 °C; for `CCOC(=O)c1cc(-c2ccc(OC)cc2)nn(Cc2ccc(Cl)cc2Cl)c1=O`: 136 °C; for `CCCCNS(=O)(=O)CC(O)(CCCC)C1OC(C)(C)N(C(=O)OC(C)(C)C)C1CC1CCCCC1` (configuration not stated): 138 to 140 °C.

The compound `COc1ccc(Oc2ccc(Cl)cc2[N+](=O)[O-])c(C=O)c1` returned a melting point of 127 to 128 °C. `Nc1ccn(C2COC(CO)C2O)c(=O)n1` (configuration not stated) came in with a melting point of 235 °C. The same measure for `CC12C=CC(=O)NC1CCc1cc(Cl)ccc12` (configuration not stated): 151 to 154 °C.

The compound `CCCOC(=O)C(C)NC(=O)C(CC(=O)O)NC(=O)C1CCCN1` (configuration not stated) gave a melting point of 233 to 235 °C. The compound `C=C(C)C(=O)Oc1cccc(O)c1O` returned a melting point of 100 to 102 °C. `CC(=O)OC(CN(Cc1ccccc1)Cc1ccccc1)c1cc(C#N)c2c(c1)CCN2C(C)=O` (configuration not stated) displayed a melting point of 108 to 109 °C.

`CN(CCO)C(c1ccc(Cl)cc1)c1ccc(Cl)cc1`: the melting point fell in the range of 49 to 50 °C. The figure for `O=C1NC2CCC1NC2=O` is 275 to 277 °C; for `OC1CSC(Oc2cnccc2C(F)(F)F)C(O)C1O` (configuration not stated) it is 191 °C. The same measure for `Nc1nc(-c2ccccc2)nc2cccc(Oc3ccccc3)c12`: 190 to 191 °C; for `COc1cc(C=C2C(=O)CCc3c2ccc(OC)c3OC)c([N+](=O)[O-])cc1OC`: 70 to 72 °C.

Consider `CCCC(C)C(=O)N1CC(NC(=O)Nc2cccc(C(=O)O)c2)C(=O)N(CC(=O)c2ccccc2C)c2cc(C)ccc21` (configuration not stated), for which the melting point was 227 to 229 °C. The same measure for `COc1cc2ncc(O[C@H]3CC[C@@H](OC(C)=O)CC3)nc2cc1OC`: 150 to 152 °C. The same measure for `OCCOCC(O)c1ccc2sccc2c1` (configuration not stated): 119 to 120 °C; for `CNC(=O)c1c(NC(=O)COC)c(OC)c(C(=O)NC)c(NC(=O)COC)c1OC`: 275 to 276 °C; for `C#CCOc1cc(-n2nnn(CCC)c2=O)c(Cl)cc1Cl`: 70 to 72 °C.

The compound `S=c1[nH]ccn1C1CCc2ccccc21` (configuration not stated) registered a melting point of 136 to 137 °C. The figure for `Cc1ccc2c(c1)c(=O)c(S(C)=O)cn2C` (configuration not stated) is 202 to 205 °C. The same measure for `CCCNC(=O)c1nc(C)ccc1C(=O)Nc1cccc2ccccc12`: 175 to 178 °C.

The values above are taken from a melting point compilation (Tetko et al.; mined from patent text by program, amines drawn as free bases though some values may be those of a salt).
